Data published in patent publication US20250099514A1, “FISH REARING COMPOSITION, AND COMPOSITION FOR PREVENTING OR TREATING FISH DISEASES” (SUMITOMO CHEMICAL COMPANY, LIMITED, priority 2021, published 2025).
Non-standard residues stand in square brackets, D forms with d. Primed or numbered codes have the meaning given here. No end group written: not given here. Dhb′ = not defined here; Dha = C=C(N)C(=O)O

Assays:
[1] = test system: Lactococcus garvieae type I (TUMSAT-K9408 strain); assay: Antibacterial activity test: growth of Lactococcus garvieae type I after shaking culture with the test substance, colony formation on TH agar; type: cell-based; settings: Experiments 8 and 9, 1 to 10 μM
Description: (§1) Examination was performed on whether bacterial cell preparations of NITE BP-03198, NITE BP-03199, NITE BP-03200, NITE BP-03202, ATCC-11454, and NITE ABP-03481 inhibit the growth of Lactococcus garvieae type I (TUMSAT-K9408 strain) and type II (TUMSAT-LgN1 strain). With reference to FIG. 7, the experimental method will be described. To 270 μL of Todd-Hewitt (TH) medium 10, 30 μL of a lactic acid bacterial cell preparation 11 was added. Furthermore, 3 μL of a bacterial solution 12 containing Lactococcus garvieae (approximately 10^5 cfu/mL) was added, and shaking culture was performed at 25° C. for 8 hours. To TH agar medium 14, 5 μL of a bacterial culture solution 13 was dropped, culture was performed at 25° C. for 12 hours, and whether a colony 15 of Lactococcus garvieae formed was observed. If the number of colonies observed was five or less, it was determined that there was antibacterial activity. Lactic acid bacterial cell preparations were prepared in the following manner. For NITE BP-03198, NITE BP-03199, NITE BP-03200, and NITE BP-03202, first, the lactic acid bacteria were each cultured in MRS Broth at a temperature of 30° C., giving culture solutions. Thereafter, the culture solutions were centrifuged to precipitate bacterial cells, and the culture supernatants were collected. […]

[2] = test system: Lactococcus garvieae type II (TUMSAT-LgN1 strain); assay: Antibacterial activity test: growth of Lactococcus garvieae type II after shaking culture with the test substance, colony formation on TH agar; type: cell-based; settings: Experiments 8 and 9, 1 to 10 μM
Description: as §1

[3] = test system: Lactococcus garvieae type II (TUMSAT-LgN1 strain); assay: as above; type: cell-based; parameters: key: +: presence of antibacterial activity; −: absence of antibacterial activity; settings: 25° C., 8 hours
Description: (§2) Examination was performed on whether bacterial cell preparations of NITE BP-03198, NITE BP-03199, NITE BP-03200, NITE BP-03202, ATCC-11454, and NITE ABP-03481 inhibit the growth of Lactococcus garvieae type I (TUMSAT-K9408 strain) and type II (TUMSAT-LgN1 strain). With reference to FIG. 7, the experimental method will be described. To 270 μL of Todd-Hewitt (TH) medium 10, 30 μL of a lactic acid bacterial cell preparation 11 was added. Furthermore, 3 μL of a bacterial solution 12 containing Lactococcus garvieae (approximately 10^5 cfu/mL) was added, and shaking culture was performed at 25° C. for 8 hours. To TH agar medium 14, 5 μL of a bacterial culture solution 13 was dropped, culture was performed at 25° C. for 12 hours, and whether a colony 15 of Lactococcus garvieae formed was observed. If the number of colonies observed was five or less, it was determined that there was antibacterial activity. Lactic acid bacterial cell preparations were prepared in the following manner. For NITE BP-03198, NITE BP-03199, NITE BP-03200, and NITE BP-03202, first, the lactic acid bacteria were each cultured in MRS Broth at a temperature of 30° C., giving culture solutions. Thereafter, the culture solutions were centrifuged to precipitate bacterial cells, and the culture supernatants were collected. The culture supernatants collected were 10-fold concentrated by using an ultrafiltration membrane (Merck Millipore, AMICON ULTRA-15 3 KDa cutoff), giving bacterial cell preparations. For ATCC-11454 and NITE ABP-03481, bacterial cell preparations were obtained in the same manner as described for NITE BP-03198 and others. As a negative control, medium for lactic acid bacteria (MRS Broth) was added to a bacterial solution containing Lactococcus garvieae.
Examination was performed on whether synthetic plantaricins inhibit the growth of Lactococcus garvieae type I (TUMSAT-K9408 strain) and type II (TUMSAT-LgN1 strain). The method in Experiment 8 is the same as that in Experiment 7 except that synthetic plantaricins were used in place of the lactic acid bacterial cell preparations. Each synthetic plantaricin was synthesized by using common techniques of organic synthesis. A solution containing plantaricin A (plantaricin A), a solution obtained by mixing plantaricin E and plantaricin F at a ratio (mole ratio) of 1:1 (plantaricin EF), a solution obtained by mixing plantaricin J and plantaricin K at a ratio (mole ratio) of 1:1 (plantaricin JK), or a solution obtained by mixing plantaricin NC8α and plantaricin NC8β at a ratio (mole ratio) of 1:1 (plantaricin NC8αβ) was added to a bacterial solution containing Lactococcus garvieae, and shaking culture was performed at 25° C. for 8 hours. […]

[4] = test system: Lactococcus garvieae type I (TUMSAT-K9408 strain); assay: Antibacterial activity test: growth of Lactococcus garvieae type I after shaking culture with the test substance, colony formation on TH agar; type: cell-based; parameters: key: +: presence of antibacterial activity; −: absence of antibacterial activity; settings: 25° C., 8 hours
Description: as §2
Examination was performed on whether synthetic plantaricins inhibit the growth of Lactococcus garvieae type I (TUMSAT-K9408 strain) and type II (TUMSAT-LgN1 strain). The method in Experiment 8 is the same as that in Experiment 7 except that synthetic plantaricins were used in place of the lactic acid bacterial cell preparations. Each synthetic plantaricin was synthesized by using common techniques of organic synthesis. A solution containing plantaricin A (plantaricin A), a solution obtained by mixing plantaricin E and plantaricin F at a ratio (mole ratio) of 1:1 (plantaricin EF), a solution obtained by mixing plantaricin J and plantaricin K at a ratio (mole ratio) of 1:1 (plantaricin JK), or a solution obtained by mixing plantaricin NC8α and plantaricin NC8β at a ratio (mole ratio) of 1:1 (plantaricin NC8αβ) was added to a bacterial solution containing Lactococcus garvieae, and shaking culture was performed at 25° C. for 8 hours. The bacterial solutions containing Lactococcus garvieae after culture were each dropped on agar medium, and whether a colony of Lactococcus garvieae formed was observed.
Examination was performed on whether a purified product of nisin A inhibits the growth of Lactococcus garvieae type I (TUMSAT-K9408 strain) and type II (TUMSAT-LgN1 strain). The method in Experiment 9 is the same as those in Experiments 7 and 8 except that a purified product of nisin A was used in place of the lactic acid bacterial cell preparations or the synthetic plantaricins. A purified product of nisin A (manufactured by Sigma-Aldrich Co. LLC) was dissolved in water and removed of insoluble components by centrifugation, giving a nisin A solution. […]

[5] = test system: Lactococcus garvieae 03/8460 strain; settings: NPL 3; cited from earlier work
[6] = test system: Lactococcus garvieae CLG4 strain; settings: NPL 4; cited from earlier work
[7] = test system: Lactococcus garvieae type II (TUMSAT-LgN1 strain); assay: Antibacterial activity test: growth of Lactococcus garvieae type II after shaking culture with the test substance, colony formation on TH agar; type: cell-based; parameters: key: +: presence of antibacterial activity,; −: absence of antibacterial activity; settings: 25° C., 8 hours
Description: as §1

[8] = test system: Lactococcus garvieae type I (TUMSAT-K9408 strain); assay: Antibacterial activity test: growth of Lactococcus garvieae type I after shaking culture with the test substance, colony formation on TH agar; type: cell-based; parameters: key: +: presence of antibacterial activity,; −: absence of antibacterial activity; settings: synthetic plantaricin 10 μM; 25° C., 8 hours
Description: as §1

Substance	Inhibition of the growth of Lactococcus garvieae type I (in words) [1]	Inhibition of the growth of Lactococcus garvieae type II (in words) [2]	Antibacterial activity, Lactococcus garvieae TUMSAT-LgN1 ([3]; nisin A solution 1 μM)	Antibacterial activity, Lactococcus garvieae TUMSAT-LgN1 ([3]; nisin A solution 3 μM)	Antibacterial activity, Lactococcus garvieae TUMSAT-LgN1 ([3]; nisin A solution 10 μM)	Antibacterial activity, Lactococcus garvieae TUMSAT-K9408 ([4]; nisin A solution 1 μM)	Antibacterial activity, Lactococcus garvieae TUMSAT-K9408 ([4]; nisin A solution 3 μM)	Antibacterial activity, Lactococcus garvieae TUMSAT-K9408 ([4]; nisin A solution 10 μM)	Growth of the Lactococcus garvieae 03/8460 strain [5]	Growth of the Lactococcus garvieae CLG4 strain [6]	Antibacterial activity, Lactococcus garvieae TUMSAT-LgN1 ([7]; synthetic plantaricin 3 μM)	Antibacterial activity, Lactococcus garvieae TUMSAT-LgN1 ([7]; synthetic plantaricin 10 μM)	Antibacterial activity, Lactococcus garvieae TUMSAT-K9408 [8]	Antibacterial activity, Lactococcus garvieae TUMSAT-LgN1 ([3]; synthetic plantaricin 1 μM)	Antibacterial activity, Lactococcus garvieae TUMSAT-K9408 ([4]; synthetic plantaricin 1 μM)	Antibacterial activity, Lactococcus garvieae TUMSAT-K9408 ([4]; synthetic plantaricin 3 μM)
nisin A (I[Dhb′]SI[Dha]LCTPGCKTGALMGCNMKTATCHCSIHV[Dha]K; thioether (positions not given here); not fully specified (residues 3, 8, 13, 23, 25, bridges); also: lanthionine thioether rings and dehydro residues not placed; UniProt P13068 24-57, looked up) [purified product of nisin A (manufactured by Sigma-Aldrich Co. LLC) dissolved in water]	inhibited the growth	inhibited the growth	+	+	+	+	+	+								
nisin Z (I[Dhb′]SI[Dha]LCTPGCKTGALMGCNMKTATCNCSIHV[Dha]K; thioether (positions not given here); not fully specified (residues 3, 8, 13, 23, 25, bridges); also: lanthionine thioether rings and dehydro residues not placed; UniProt P29559 24-57, looked up) [antibacterial peptide produced by Lactococcus lactis strains TW34 and WA2-67 (literature)]									inhibited the growth	inhibited the growth						
plantaricin A	inhibited the growth	inhibited the growth									+	+	+	−	−	−
